In the supplement of paper PMC10307832:

Experiments:
[1] = compound: CN1C=C(C2=CC=CC=C21)/C=C\3/C4=C(C=CC=N4)NC3=O; test: relative viability (nuclei count vs DMSO), 5 days (fraction); higher = more cells survive
Procedure, shortened: (§1)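 A plate was accepted only when its control CV was below 25% and the cells had doubled at least once. Viability is defined from nuclear counts as treated wells divided by vehicle wells, with the median taken across plates. That median covers lung cancer cell lines grown in 1536-well plates, dosed by pinning at five √10-spaced library-drug concentrations, and counted in MetaXpress from 4× Hoechst images after 5 days.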

Trametinib = compound: CC(=O)Nc1cccc(-n2c(=O)n(C3CC3)c(=O)c3c(Nc4ccc(I)cc4F)n(C)c(=O)c(C)c32)c1 [Trametinib]; test: as above
Procedure, shortened: as §1

Cell Line | relative viability ([1]; 0.02 µM) | relative viability ([1]; 0.06325 µM) | relative viability ([1]; 0.2 µM) | relative viability ([1]; 0.6325 µM) | relative viability ([1]; 2 µM) | relative viability (Trametinib; 0.0025 µM) | relative viability (Trametinib; 0.007906 µM) | relative viability (Trametinib; 0.02 µM, anchor plate) | relative viability (Trametinib; 0.025 µM) | relative viability (Trametinib; 0.07906 µM) | relative viability (Trametinib; 0.25 µM)
NCI-H460 | 1.04 | 0.98 | 0.973 | 0.992 | 0.947 | 0.982 | 0.969 | 0.159 | 0.668 | 0.339 | 0.12
NCI-H1651 | 1.07 | 0.961 | 0.957 | 0.945 | 1.06 | 0.942 | 0.958 | 0.837 | 0.851 | 0.837 | 0.691
NCI-H1975 | 1.03 | 0.898 | 0.887 | 0.845 | 0.677 | 0.883 | 0.76 | 0.374 | 0.754 | 0.431 | 0.301
NCI-H2126 | 0.965 | 0.993 | 0.885 | 1.01 | 0.955 | 0.9 | 0.836 | 0.572 | 0.585 | 0.738 | 0.669
201T | 0.951 | 0.979 | 0.988 | 0.916 | 0.971 | 0.96 | 0.886 | 0.721 | 0.845 | 0.778 | 0.761
HCC-78 | 0.81 | 0.905 | 0.731 | 0.803 | 0.889 | 0.933 | 0.735 | 0.805 | 0.678 | 0.573 | 0.526
NCI-H358 | 0.907 | 0.931 | 0.916 | 0.891 | 0.938 | 0.643 | 0.472 | 0.137 | 0.328 | 0.27 | 0.259
SK-LU-1 | 0.793 | 0.928 | 0.984 | 0.945 | 1.08 | 1.03 | 0.88 | 0.475 | 0.641 | 0.548 | 0.412
H3255 | 1.04 | 0.951 | 0.834 | 0.978 | 0.903 | 0.973 | 0.879 | 0.631 | 0.787 | 0.742 | 0.563
LOU-NH91 | 0.902 | 0.825 | 0.844 | 0.856 | 0.95 | 0.926 | 0.923 | 0.799 | 0.761 | 0.8 | 0.366
NCI-H1666 | 1.09 | 0.938 | 0.99 | 0.924 | 0.967 | 0.972 | 0.931 | 0.864 | 0.892 | 0.724 | 0.617
SK-MES-1 | 0.967 | 0.959 | 0.951 | 0.929 | 0.967 | 0.948 | 0.803 | 0.574 | 0.621 | 0.485 | 0.359
NCI-H2023 | 1.01 | 0.962 | 0.768 | 0.945 | 0.898 | 0.964 | 0.765 | 0.611 | 0.655 | 0.632 | 0.334
COR-L 105 | 0.803 | 0.838 | 0.837 | 1.05 | 1.02 | 0.835 | 0.786 | 0.446 | 0.426 | 0.386 | 0.426
NCI-H2342 | 0.938 | 0.963 | 0.955 | 0.878 | 0.906 | 0.958 | 0.915 | 0.847 | 0.554 | 0.749 | 0.855
NCI-H838 | 0.82 | 0.859 | 0.914 | 0.837 | 0.909 | 0.873 | 0.855 | 0.527 | 0.615 | 0.763 | 0.594
SW 1573 | 1.07 | 0.968 | 0.994 | 1.05 | 0.971 | 0.875 | 0.716 | 0.615 | 0.631 | 0.583 | 0.485
